# From ChEMBL document CHEMBL1154248, “Matrix metalloproteinase-2 inhibitors from Clinopodium chinense var. parviflorum” (J Nat Prod, 2009)
# Target: 72 kDa type IV collagenase (Rattus norvegicus, UniProt P33436)
# Assay: Inhibition of gelatinolytic activity of MMP2 in rat lung homogenate after 40 mins by SDS-PAGE preincubated for 30 mins
# Sequence of 72 kDa type IV collagenase (P33436 whole entry): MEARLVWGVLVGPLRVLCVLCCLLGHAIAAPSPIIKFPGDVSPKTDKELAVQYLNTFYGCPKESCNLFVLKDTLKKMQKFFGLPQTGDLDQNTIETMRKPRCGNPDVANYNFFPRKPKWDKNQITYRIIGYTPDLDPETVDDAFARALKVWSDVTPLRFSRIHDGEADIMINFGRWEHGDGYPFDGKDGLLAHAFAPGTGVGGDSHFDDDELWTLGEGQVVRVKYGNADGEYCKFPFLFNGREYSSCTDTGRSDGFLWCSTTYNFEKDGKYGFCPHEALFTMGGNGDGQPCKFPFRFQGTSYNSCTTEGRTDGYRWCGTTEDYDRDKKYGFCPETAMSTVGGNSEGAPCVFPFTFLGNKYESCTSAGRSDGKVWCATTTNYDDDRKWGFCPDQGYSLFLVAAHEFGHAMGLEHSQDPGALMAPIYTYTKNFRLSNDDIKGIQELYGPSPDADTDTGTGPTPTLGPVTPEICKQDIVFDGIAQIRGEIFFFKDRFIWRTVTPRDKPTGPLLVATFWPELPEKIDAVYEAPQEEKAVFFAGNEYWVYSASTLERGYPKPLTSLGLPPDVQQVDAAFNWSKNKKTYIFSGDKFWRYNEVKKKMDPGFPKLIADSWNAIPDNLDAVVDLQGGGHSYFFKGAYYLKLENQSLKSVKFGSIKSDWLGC
row,IC50 [µM],Structure (SMILES)
1,> 100,O=C(/C=C/c1ccc(O)cc1)O[C@H](Cc1ccc(O)c(O)c1)C(=O)O [CLINOPODIC ACID A]
2,> 100,COc1cc(C[C@@H](OC(=O)/C=C/c2ccc(O)c(O)c2)C(=O)O)ccc1O [CLINOPODIC ACID B]
3,3.26,O=C(/C=C/c1ccc2c(c1)O[C@H](C(=O)O)[C@H](c1ccc(O)c(O)c1)O2)O[C@H](Cc1ccc(O)c(O)c1)C(=O)O [CLINOPODIC ACID C]
4,> 100,O=C(/C=C/c1ccc2c(c1)O[C@@H](C(=O)O)[C@@H](c1ccc(O)c(O)c1)O2)O[C@H](Cc1ccc(O)c(O)c1)C(=O)O [CLINOPODIC ACID E]
5,> 100,COc1cc(C[C@@H](OC(=O)/C=C/c2ccc3c(c2)O[C@@H](C(=O)O)[C@@H](c2ccc(O)c(O)c2)O3)C(=O)O)ccc1O [CLINOPODIC ACID F]
6,> 100,COc1cc(C[C@@H](OC(=O)/C=C/c2ccc(O)c3c2[C@H](C(=O)O)[C@@H](c2ccc(O)c(OC)c2)O3)C(=O)O)ccc1O [CLINOPODIC ACID H]
7,10.2,O=C(/C=C/c1ccc(O)c2c1[C@H](C(=O)O)[C@@H](c1ccc(O)c(O)c1)O2)O[C@H](Cc1ccc(O)c(O)c1)C(=O)O [LITHOSPERMIC ACID]
8,> 100,COC(=O)[C@@H](Cc1ccc(O)c(O)c1)OC(=O)/C=C/c1ccc(O)c(O)c1 [METHYL ROSMARINATE]
9,27.2,O=C(/C=C/c1ccc(O)c(O)c1)O[C@H](Cc1ccc(O)c(O)c1)C(=O)O [ROSMARINIC ACID]
